From paper PMC7687371, “Quantitative in Vitro to in Vivo Extrapolation (QIVIVE) for Predicting Reduced Anogenital Distance Produced by Anti-Androgenic Pesticides in a Rodent Model for Male Reproductive Disorders” (Environmental Health Perspectives, 2020)
Read-outs that look alike come from different tables or passages of the source. Marks after values point to notes of the source that are not given here.

How the values were obtained:
[1] = Fetal chemical exposure analysis (LC-QTOF) at GD21; format: in vivo, rat
Summary of the method: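 Rat dams killed at GD21; pooled fetal trunk plasma (by sex, per litter, ~90 min post-dose) and amniotic fluid stored at −80 °C. Samples extracted with acetonitrile (C-18 cleanup) and analysed by positive-ESI LC-QTOF; quantified from (M+H)+ extracted-ion chromatograms ±0.005 Da against matrix-matched plasma standards.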

[2] = set-up: method as in U.S. EPA 2012; conditions: EPI Suite, experimental preferred over modeled; ref U.S. EPA 2012; cited from earlier work
NCI-H295R cells = assay: H295R steroidogenesis assay; format: cell-based, human; conditions: for Effect on androgen (steroid) synthesis, in words: H295R steroidogenesis assay; for IC50 / IC20: Homo sapiens; for IC50: 48 h; for IC20: read-out: Testosterone inhibition (IC20 µM)
Summary of the method: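 Human adrenocortical NCI-H295R cells exposed 48 h to compounds in 2-fold dilutions from 0.8 to 50 μM (0.1% DMSO), three independent experiments. Ten steroid hormones in medium measured by LC-MS/MS and normalized to solvent controls; viability checked by MTT.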

[3] = PBK model first-order kinetic parameters fitted to in vivo ADME data; set-up: species or system rat; conditions: PBK model parameter; for Metabolism rate in liver, Total (L/h) KMetab: metabolic clearance
[4] = cited from earlier work
[5] = NCI-H295R, read-out: Testosterone inhibition (IC50, μM)

CC12CC1(C)C(=O)N(c1cc(Cl)cc(Cl)c1)C2=O (stereo not shown) [Procymidone, procymidone, reference compound]
Measured concentration in male fetuses ([1]; male, Sprague-Dawley, rat, in vivo, 40 mg/kg/day): 7.8 µM
log Kow [2]: 3.08
Effect on androgen (steroid) synthesis, in words (NCI-H295R cells): inhibited the synthesis of androgens
IC50 (NCI-H295R cells; [5]): 6 µM
Fecal excretion rate from gut (L/h) KFeces [3]: 0.04 L/h
Urine excretion rate from kidney (L/h) KUrine [3]: 0.08 L/h

N#Cc1c[nH]cc1-c1cccc2c1OC(F)(F)O2 [Fludioxonil, fludioxonil]
Measured concentration in male fetuses ([1]; fetal plasma GD21, dams dosed 60 mg/kg BW per day (Study 3)): 3.3 µM
log Kow [2]: 4.12
Effect on androgen (steroid) synthesis, in words (NCI-H295R cells): inhibited testosterone synthesis
IC50 (NCI-H295R cells; NCI-H295R cells, NA = not active up to 50μM, read-out: Testosterone inhibition (IC50)): 10.8 µM
IC20 (NCI-H295R cells; NCI-H295R cells): 1.3 µM
Androstendione, LOEC (NCI-H295R cells; multiple contrast tests): 25 µM
Corticosterone, LOEC (NCI-H295R cells; multiple contrast tests): 12.5 µM
Estradiol, LOEC (NCI-H295R cells; multiple contrast tests): 3.1 µM
OH-Progesterone, LOEC (NCI-H295R cells; multiple contrast tests): 3.1 µM
Testosterone, lowest observed effect concentration (LOEC) (NCI-H295R cells; multiple contrast tests): 1.6 µM
Fecal excretion rate from gut (L/h) KFeces [3]: 3 L/h
Portal GI absorption rate into liver (L/h) KAS [3]: 1 L/h
Urine excretion rate from kidney (L/h) KUrine [3]: 0.01 L/h
Metabolism rate in liver, Total (L/h) KMetab [3]: 0.3 L/h
Unbound plasma fraction (%) ([4]; ref Wetmore et al. (2012)): 0.5^g %

COc1ccc(C(=CC(=O)N2CCOCC2)c2ccc(Cl)cc2)cc1OC [Dimethomorph, dimethomorph]
Measured concentration in male fetuses ([1]; fetal plasma GD21, dams dosed 20 mg/kg BW per day (Study 3)): 1.35 µM
log Kow [2]: 2.68
Androstenedione (relative to controls), mean (NCI-H295R cells; 0.8 µM): 0.83
Testosterone (relative to controls), mean (NCI-H295R cells; 0.8 µM): 0.88
Androstenedione (relative to controls), mean (NCI-H295R cells; 1.6 µM): 0.81
Testosterone (relative to controls), mean (NCI-H295R cells; 1.6 µM): 0.84
Androstenedione (relative to controls), mean (NCI-H295R cells; 3.1 µM): 0.80
Testosterone (relative to controls), mean (NCI-H295R cells; 3.1 µM): 0.76
Androstenedione (relative to controls), mean (NCI-H295R cells; 6.3 µM): 0.89
Testosterone (relative to controls), mean (NCI-H295R cells; 6.3 µM): 0.74
Androstenedione (relative to controls), mean (NCI-H295R cells; 12.5 µM): 0.77
Testosterone (relative to controls), mean (NCI-H295R cells; 12.5 µM): 0.68
Androstenedione (relative to controls), mean (NCI-H295R cells; 25 µM): 0.70
Testosterone (relative to controls), mean (NCI-H295R cells; 25 µM): 0.73
Androstenedione (relative to controls), mean (NCI-H295R cells; 50 µM): 0.67
Testosterone (relative to controls), mean (NCI-H295R cells; 50 µM): 0.67
Effect on androgen (steroid) synthesis, in words (NCI-H295R cells): inhibited testosterone synthesis
IC50 (NCI-H295R cells; [5]): > 50 µM
IC20 (NCI-H295R cells; NCI-H295R): 2.8 µM
Corticosterone, LOEC (NCI-H295R cells; multiple contrast tests): 0.8 µM
DHEA, LOEC (NCI-H295R cells; multiple contrast tests): 25 µM
Estradiol, LOEC (NCI-H295R cells; multiple contrast tests): 0.8 µM
OH-Progesterone, LOEC (NCI-H295R cells; multiple contrast tests): 12.5 µM
Fecal excretion rate from gut (L/h) KFeces [3]: 2 L/h
Portal GI absorption rate into liver (L/h) KAS [3]: 1 L/h
Urine excretion rate from kidney (L/h) KUrine [3]: 0.01 L/h
Metabolism rate in liver, Total (L/h) KMetab [3]: 0.3 L/h
Unbound plasma fraction (%) ([4]; plasma): 9.4^g %
